# T1: RgNanA (RUMGNA_02692), sialic acid aldolase (Mediterraneibacter gnavus, UniProt A7B555, K177A)
# T1 sequence (A7B555 11-315 K177A): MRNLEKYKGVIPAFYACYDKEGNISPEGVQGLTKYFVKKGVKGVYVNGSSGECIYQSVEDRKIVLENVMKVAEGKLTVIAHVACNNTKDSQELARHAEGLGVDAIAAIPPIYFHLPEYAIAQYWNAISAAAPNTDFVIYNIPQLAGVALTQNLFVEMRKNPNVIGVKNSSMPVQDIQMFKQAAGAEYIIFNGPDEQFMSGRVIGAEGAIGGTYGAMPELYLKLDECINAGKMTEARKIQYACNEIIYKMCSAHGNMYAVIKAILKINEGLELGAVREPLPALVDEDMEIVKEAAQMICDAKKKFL
# Experiments:
# [1] = biological target: RgNanOx (RUMGNA_02695), oxidoreductase (Mediterraneibacter gnavus, UniProt A7B558); experiment: HPLC of DMB-labelled product with and without cofactor; assay type: biochemical
# [2] = biological target: EcNanA (E. coli Neu5Ac lyase/aldolase) (Escherichia coli, UniProt P0A6L4); experiment: lactate dehydrogenase-coupled aldolase assay; assay type: biochemical
# [3] = biological target: T1, RgNanA (RUMGNA_02692), sialic acid aldolase; experiment: X-ray crystal structure; assay type: binding
# [4] = test system: CC(=O)N[C@H]1[C@H]2O[C@@](C(=O)O)(C[C@@H]1O)O[C@@H]2[C@H](O)CO; experiment: purified protein; details: NAD+ or NADH
# purified protein = substrate: CC(=O)N[C@@H]1[C@@H](O)CC(O)(C(=O)O)O[C@H]1C(O)C(O)CO; experiment: purified protein
molecule,measurement,setting,value
NC(=O)C1=CN([C@@H]2O[C@H](COP(=O)(O)OP(=O)(O)OC[C@H]3O[C@@H](n4cnc5c(N)ncnc54)[C@H](O)[C@@H]3O)[C@@H](O)[C@H]2O)C=CC1 [NADH],HPLC of DMB-labelled product with and without cofactor (500 μM),[1],"Neu5Ac was produced in the presence of NAD^+ or NADH, but not in the presence of FAD"
NC(=O)c1ccc[n+]([C@@H]2O[C@H](COP(=O)([O-])OP(=O)(O)OC[C@H]3O[C@@H](n4cnc5c(N)ncnc54)[C@H](O)[C@@H]3O)[C@@H](O)[C@H]2O)c1 [NAD^+],HPLC of DMB-labelled product with and without cofactor (500 μM),[1],"Neu5Ac was produced in the presence of NAD^+ or NADH, but not in the presence of FAD"
CC(=O)N[C@@H]1[C@@H](O)CC(O)(C(=O)O)O[C@H]1C(O)C(O)CO (stereo partly drawn) [Neu5Ac],lactate dehydrogenase-coupled aldolase assay (control enzyme),[2],RgNanA and EcNanA (E. coli Neu5Ac lyase/aldolase used as a control) showed activity against Neu5Ac
same,X-ray crystal structure (5 mM Neu5Ac soak of inactive mutant),[3],"complex between an inactive mutant, RgNanA K167A, and Neu5Ac showed Neu5Ac in the open-chain ketone form"
"RgNanOx (RUMGNA_02695), oxidoreductase (Mediterraneibacter gnavus ATCC 29149)",Km,[4],0.074 ± 0.014 mM
"RgNanA (RUMGNA_02692), sialic acid aldolase (Mediterraneibacter gnavus ATCC 29149) (protein) MAFMKQRSKTMRNLEKYKGVIPAFYACYDKEGNISPEGVQGLTKYFVKKGVKGVYVNGSSGECIYQSVEDRKIVLENVMKVAEGKLTVIAHVACNNTKDSQELARHAEGLGVDAIAAIPPIYFHLPEYAIAQYWNAISAAAPNTDFVIYNIPQLAGVALTQNLFVEMRKNPNVIGVKNSSMPVQDIQMFKQAAGAEYIIFNGPDEQFMSGRVIGAEGAIGGTYGAMPELYLKLDECINAGKMTEARKIQYACNEIIYKMCSAHGNMYAVIKAILKINEGLELGAVREPLPALVDEDMEIVKEAAQMICDAKKKFL",Km,purified protein,1.473 ± 0.098 mM

# Reference: article PMC6881182 (Nature microbiology, 2019)
